The subject of data set [1] is E. faecium strains (CIP 103510, Van A, 1401). Nature of the data set: MIC on a wider panel of strains (Example 10), microdilution. The settings on record: Enterococcus faecium, CIP103510. Type of data set: cell-based. Here is the method: The cultures studied, freshly isolated (after incubation on a blood agar at 37° C. for 18 h), are taken up in sterile water (10 mL) until obtaining a 0.5 McFarland (Mc) suspension i.e. 1 to 1 to 2×10^8 CFU (bacteria)/cm^3. The bacterial suspension was then diluted to obtain a final concentration of 1×10^6 CFU/cm^3.
Each well contains an identical quantity of Mueller-Hinton medium (a rich medium for bacterial culture) and bacteria with final [concentration of] 0.5×10^6 CFU/cm^3.
The test compounds of interest are solubilized in ethanol or DMSO at 25 mg/mL before being diluted to different concentrations two by two. On the multiwell plate, a first series has been planned comprising the culture medium without the test compound of interest. It corresponds to the growth control (control well). These controls serve as reference for comparing bacterial growth with that of the subsequent wells comprising different concentrations of the test compound of interest. The second series of wells comprises the mother solution for the test compound of interest for a concentration in the wells of 256 mg/L (7 mM). Each series of wells was diluted two by two until the last series for a final concentration of 0.25 mg/L (0.0007 mM). Each concentration is duplicated in the same plate. The plate is incubated for 18 h at 37° C. […] If there is antibacterial activity, the bacterial growth is inhibited, which means that no turbidity or bacterial residue is present.
The minimum inhibitory concentrations (MIC) are tested on Gram-positive bacterial strains according to the recommendations of the “Clinical Laboratory Standards Institute” (Clinical-Laboratory-Standards-Institute, 6th ed. Approved standard M100-S17. CLSI, Wayne, Pa., 2007). The clinical strains have been isolated in the Hospice de Lyon.
Enterococci: E. faecium (CIP 103510), clinical strains of Enterococci E. faecium: Van A 0151850763 (hereinafter Van A); strain 015 205731401 (hereinafter 1401),
The cultures studied, freshly isolated (after incubation on a blood agar at 37° C. for 18 h), are taken up in sterile water (10 mL) until obtaining a 0.5 McFarland (Mc) suspension i.e. At 10^8 CFU (bacteria)/cm^3. The bacterial suspension was then diluted to obtain a final concentration of 10^6 CFU/cm^3.

For data set [2], the system named is L. monocytogenes strains (CIP 103575, LM1, LM2, LM3). Described as above. The settings on record: Listeria monocytogenes, CIP103575. Type of data set: cell-based. Here is the method:
The cultures studied, freshly isolated (after incubation on a blood agar at 37° C. for 18 h), are taken up in sterile water (10 mL) until obtaining a 0.5 McFarland (Mc) suspension i.e. 1 to 1 to 2×10^8 CFU (bacteria)/cm^3. The bacterial suspension was then diluted to obtain a final concentration of 1×10^6 CFU/cm^3. Each well contains an identical quantity of Mueller-Hinton medium (a rich medium for bacterial culture) and bacteria with final [concentration of] 0.5×10^6 CFU/cm^3. The test compounds of interest are solubilized in ethanol or DMSO at 25 mg/mL before being diluted to different concentrations two by two. On the multiwell plate, a first series has been planned comprising the culture medium without the test compound of interest. It corresponds to the growth control (control well). These controls serve as reference for comparing bacterial growth with that of the subsequent wells comprising different concentrations of the test compound of interest. The second series of wells comprises the mother solution for the test compound of interest for a concentration in the wells of 256 mg/L (7 mM). Each series of wells was diluted two by two until the last series for a final concentration of 0.25 mg/L (0.0007 mM). Each concentration is duplicated in the same plate. The plate is incubated for 18 h at 37° C. […] If there is antibacterial activity, the bacterial growth is inhibited, which means that no turbidity or bacterial residue is present. The minimum inhibitory concentrations (MIC) are tested on Gram-positive bacterial strains according to the recommendations of the “Clinical Laboratory Standards Institute” (Clinical-Laboratory-Standards-Institute, 6th ed. Approved standard M100-S17. CLSI, Wayne, Pa., 2007). The clinical strains have been isolated in the Hospice de Lyon. Listeria: L. monocytogenes (CIP 103575), clinical strain isolated from hemoculture (015189074801, LM1), a strain isolated from cerebrospinal liquid (015170199001, LM2), clinical strains isolated from hemoculture (015181840701, LM3). The cultures studied, freshly isolated (after incubation on a blood agar at 37° C. for 18 h), are taken up in sterile water (10 mL) until obtaining a 0.5 McFarland (Mc) suspension i.e. At 10^8 CFU (bacteria)/cm^3. The bacterial suspension was then diluted to obtain a final concentration of 10^6 CFU/cm^3.

A short description of data set [3]: Water solubility of test solutions. The class given is physicochemical. The settings on record: solutions diluted in water, 2.5% m ethanol; precipitates formed. On the procedure: Tests have been conducted on Gram-positive bacteria with methyl glucopyranoside derivatives. […] After sterilization the solutions are diluted in water. […] Because precipitates formed in the solutions, the effect of these methyl glucopyranoside C10 and C12 acetals was not able to be evaluated. The results obtained for antimicrobial tests on the 3 bacterial strains L. monocytogenes (CIP 103575), E. faecalis (ATCC® 29212) and S. aureus (ATCC® […]) are summarized in Table 1.

The mark [4] stands for this setting: E. faecium CIP 103510, read-out: MIC Enterococcus CIP 103510.
Setting [5] is: E. faecium clinical strain Van A 0151850763, read-out: MIC Enterococcus Van A.
The mark [6] stands for this setting: L. monocytogenes CIP 103575, read-out: MIC Listeria CIP 103575.

In brackets after ≈: the same amount, converted by molar mass. Like-named read-outs stand apart in the source and are kept apart here.

As to `CCCCCCCCCCCC1OCC2O[C@@H](OC)C(O)C(O)[C@@H]2O1` (stereo partly drawn) [Compound 1f, Methyl 4,6-O-Dodecylidene β-D-glucopyranoside], the MIC in data set [1] (setting [4]) came out at 32 mg/L (≈ 88.8 µM); in data set [1] (E. faecium clinical strain 015 205731401, read-out: MIC Enterococcus 1401), 16 mg/L (≈ 44.4 µM); in data set [1] (setting [5]), 32 mg/L (≈ 88.8 µM); in data set [2] (setting [6]) it was 16 mg/L (≈ 44.4 µM); in data set [2] (clinical strain from hemoculture 015181840701, read-out: MIC Listeria LM3), 64 mg/L (≈ 178 µM); in data set [2] (clinical strain from hemoculture 015189074801, read-out: MIC Listeria LM1), 16 mg/L (≈ 44.4 µM). In addition, the MIC in data set [2] (strain from cerebrospinal liquid 015170199001, read-out: MIC Listeria LM2) amounted to 16 mg/L (≈ 44.4 µM).

On to `CCCCCCCCCCCC1OCC2O[C@H](OC)C(O)C(O)[C@@H]2O1` (stereo partly drawn) [Compound 1e, Methyl 4,6-O-Dodecylidene α-D-glucopyranoside], for which the MIC in data set [1] (setting [4]) stood at 256 mg/L (≈ 710 µM); in data set [1] (setting [5]) it was 256 mg/L (≈ 710 µM); in data set [2] (setting [6]) it was 64 mg/L (≈ 178 µM). The water solubility result in data set [3] is recorded as “low water solubility”.

The values above are taken from patent US10537103B2, “Antibacterial composition containing an isomer mixture of monosaccharide alkyl monoacetals or monoethers” (TEREOS STARCH & SWEETENERS BELGIUM, priority 2014, dated 2020).
